Results as given in ChEMBL document CHEMBL3886684, “Azole compounds as PIM inhibitors” (2016).

Molecular target: Serine/threonine-protein kinase pim-2 (Homo sapiens, UniProt Q9P1W9)
Experiment: The phosphorylation of biotinylated-BAD (S112) peptide by full length recombinant Pim-1, Pim-2, or Pim-3 protein was detected with streptavidin:Allophycocyanin (APC) conjugate and a europium (Eu) labeled antibody directed against phosphorylated-BAD (S112). […] A reference compound was included on each assay plate in order to validate that plate; on

Serine/threonine-protein kinase pim-2, sequence (Q9P1W9 whole entry): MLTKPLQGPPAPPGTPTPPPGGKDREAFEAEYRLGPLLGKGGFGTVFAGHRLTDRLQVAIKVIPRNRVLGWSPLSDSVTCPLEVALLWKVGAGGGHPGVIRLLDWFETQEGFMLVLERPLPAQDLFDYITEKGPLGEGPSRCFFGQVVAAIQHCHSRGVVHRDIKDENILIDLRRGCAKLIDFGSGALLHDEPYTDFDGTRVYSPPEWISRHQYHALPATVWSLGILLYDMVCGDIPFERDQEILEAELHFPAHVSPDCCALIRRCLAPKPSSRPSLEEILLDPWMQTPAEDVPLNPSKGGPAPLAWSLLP

IC50: 738 nM
SMILES: CC(C)(C)Nc1nnc(-c2ccc3[nH]cc(C4=CCOCC4)c3c2)o1
